Tests used:
[1] = system: MBLs; settings: cited from earlier work
[2] = system: K. pneumoniae K66-45 (NDM-1); assay: MIC determination of meropenem with zinc chelator at varying zinc concentrations in the medium (Example 31); assay type: cell-based, Klebsiella pneumoniae
Experimental: An experiment was conducted to determine the Minimal Inhibitory Concentration (MIC) of meropenem (MEM) in combination with the zinc chelator according to Example 26 of WO 2018/033719 at varying concentrations of zinc in the medium. The medium was a Mueller Hinton broth from Thermo Fischer. The zinc content was measured as 5.6 μM using ICP-MS. The concentration of zinc in the plasma of healthy animals has been determined to be close to this value. In infectious tissue, the zinc concentration is below the limit of detection (see, for example Bilinskaya et al., Am. Soc. For Microbiology (2020), 58, pages 1-8). Zinc sulfate was then added to this broth to obtain three further concentrations: 15.6 μM, 25.6 μM and 35.6 μM of zinc, keeping all other parameters constant.
As a model bacterial strain for this experiment, the MIC of MEM vs. K. pneumoniae K66-45 (NDM-1) was then determined in broth containing the four concentrations of zinc following the protocol given in Example 1. The EUCAST MIC value for MEM alone (EUCAST: standardization organization for MIC values of antibiotics) is 4-8 μM, meaning that if a bacterial strain is inhibited at lower concentrations than the MIC value, the bacterial strain is sensitive(S) to MEM. Correspondingly, if the bacterial strain is not inhibited at MIC or lower, the strain is resistant (R). If the inhibition is within the MIC range 4-8 μM, the resistance is intermediate (I).

[3] = system: clinically isolated gram-negative bacteria with MBL as a resistance mechanism; settings: cited from earlier work
[4] = system: NDM; settings: mouse models; relatively high doses required to reverse carbapenem resistance; cited from earlier work
[5] = system: MBL-producers; settings: cited from earlier work
[6] = system: MBL class IMP; settings: cited from earlier work

NC(=O)[C@@H]1CC[C@@H]2CN1C(=O)N2OS(=O)(=O)O [Avibactam, avibactam]
inhibitory activity against MBLs [1]: none of these β-lactamase inhibitors possess inhibitory activity against MBLs

CC1=C[C@@H]2CN(C(=O)N2OS(=O)(=O)O)[C@@H]1C(N)=O [ETX2514]
inhibitory activity against MBLs [1]: none of these β-lactamase inhibitors possess inhibitory activity against MBLs

C[C@@H](O)[C@H]1C(=O)N2C(C(=O)O)=C(S[C@@H]3CN[C@H](C(=O)N(C)C)C3)[C@H](C)[C@H]12 [Meropenem, meropenem, reference compound]
EUCAST MIC class for MEM alone ([2]; zinc concentration 5.6 μM): S (if a bacterial strain is inhibited at lower concentrations than the MIC value, the bacterial strain is sensitive(S) to MEM) | EUCAST MIC class for MEM alone ([2]; zinc concentration 35.6 μM): R (if the bacterial strain is not inhibited at MIC or lower, the strain is resistant (R)) | sensitivity to meropenem alone ([3]; meropenem used alone, many clinical isolates with MBL): resistant to the antibiotic | effect of MEM in combination with the compound of Example 26 of WO 2018/033719 ([3]; same strains, sensitivity reinstated): inhibitory effect

N[C@H](CN[C@H](CN[C@@H](CC(=O)O)C(=O)O)C(=O)O)C(=O)O [aspergillomarasmine A]
in vivo activity [4]: in vivo activity in mouse models

NCCN[C@H]1CC[C@H](CC(=O)N[C@H]2Cc3cccc(C(=O)O)c3OB2O)CC1 [taniborbactam]
activity in combination with cefepime [5]: potent activity | effect in combination with cefepime [6]: no effect

O=C(O)C[C@@H]1CC[C@H](NC(=O)Cc2cccs2)B(O)O1 [vaborbactam]
inhibitory activity against MBLs [1]: none of these β-lactamase inhibitors possess inhibitory activity against MBLs
